Assay results: publication PMC9753424 (2022)

Assays:
Assay in all cases: bio-layer interferometry
[1] = test system: MYC-G4 (DNA, G4) TGAGGGTGGGTAGGGTGGGTAA; details: PBS (ion concentrations not given), 0.5% DMSO, 0.02% Tween-20, 25 °C sensor hydration
[2] = test system: hTELO-G4 (DNA, G4) GGTTAGGGTTAGGGTTAGGGTTAGGGTTAG; details: PBS (ion concentrations not given), 0.5% DMSO, 0.02% Tween-20, highest hemin 8 μM
[3] = test system: intermolecular hTELO-G4 (DNA, G4) TTAGGGTTAGGGTTAGGG; details: PBS (ion concentrations not given), 0.5% DMSO, 0.02% Tween-20, highest hemin 8 μM
[4] = test system: SPB1-G4 (DNA, G4) GGCGAGGGGCGTGGCCGGC; details: PBS (ion concentrations not given), 0.5% DMSO, 0.02% Tween-20, highest hemin 8 μM
[5] = test system: double-stranded DNA (DNA, duplex) GGCATAGTGCGTGGGCG/CGCCCACGCACTATGCC; details: PBS (ion concentrations not given), 0.5% DMSO, 0.02% Tween-20, highest hemin 8 μM
[6] = test system: ssDNA oligonucleotide (DNA, single strand) GGCATAGTGCGTGGGCG; details: PBS (ion concentrations not given), 0.5% DMSO, 0.02% Tween-20, highest hemin 8 μM

Compound | KD ([1]; PpIX 1.25-20 μM) [nM] | binding [2] | KD ([1]; hemin 0.5-8 μM) [nM] | binding [3] | binding [4] | binding [5] | binding [6]
C=CC1=C(C)c2cc3[nH]c(cc4nc(cc5[nH]c(cc1n2)c(C)c5CCC(=O)O)C(CCC(=O)O)=C4C)c(C)c3C=C | 3040 ± 50 | – | – | – | – | – | –
C=CC1=C(C)c2cc3[n-]c(cc4[n-]c(cc5nc(cc1n2)C(C)=C5C=C)c(C)c4CCC(=O)O)c(CCC(=O)O)c3C.[Cl-].[Fe+3] | – | no | 1520 ± 40 | no | no | no | no
